Test results as given in BigSolDB 2.1.

CC(=O)OC(c1ccccc1)C(Cl)(Cl)Cl (stereo unspecified)
solubility (mole fraction)
Details	in acetic acid	in acetone	in acetonitrile	in ethanol	in ethyl acetate	in ethyl formate	in isopropanol	in methanol	in n-propanol
288.15 K	0.0201	0.0931	0.036	0.00865	0.117	0.0868	0.00712	0.00659	0.0105
293.15 K	0.0271	0.111	0.0408	0.0108	0.137	0.105	0.00929	0.00757	0.0132
298.15 K	0.0379	0.133	0.0579	0.0134	0.159	0.132	0.0129	0.00931	0.0164
303.15 K	0.0482	0.158	0.0719	0.0171	0.19	0.165	0.0169	0.0121	0.0216
308.15 K	0.0605	0.193	0.0989	0.0217	0.218	0.198	0.0211	0.0153	0.0287
313.15 K	0.0767	0.232	0.13	0.029	0.251	0.236	0.0279	0.02	0.0375
318.15 K	0.1	0.273	0.168	0.0406	0.287	0.274	0.0382	0.0264	0.0496
323.15 K	0.127	0.32	0.218	0.0555	0.333	0.314	0.0538	0.0342	0.0667
328.15 K	0.167	0.377	0.286	0.0735	0.38	0.363	0.0742	0.0447	0.0905
